The results in this text go back to the NIST ThermoML archive (doi:10.1021/je049913p).

Each structure is given as a SMILES string. Numbers after ± are expanded uncertainties.

The conditions of data set [1]: Crystal; Adiabatic calorimetry.
Data set [2] can be described thus: Molar enthalpy of transition or fusion. Particulars: Crystal; Adiabatic calorimetry.

In the case of `[Bi]` [bismuth], the Triple point temperature in data set [1] is listed as 544.56 ± 0.005 K. Further, in data set [2], the “Molar enthalpy of transition or fusion” value amounted to 2.655 ± 0.00406 kcal/mol.
